pIC50: −log10 of the molar value.
Tested on: 966289-007-R4-J1-PDC complex spheroid viability
Test: Anticancer human tumor 966289-007-R4-J1-PDC patient-derived pancreatic adenocarcinoma cell line growth inhibition [RAS]
Settings: for pIC50: curve of first compound; for viability, T/C: stronger effect = lower value
Excerpt: RAS pathway inhibitors in Combinations in Complex Spheroids
A high-throughput screen of multi-cell type tumor spheroids was designed to identify active combinations of RAS pathway inhibitors and targeted small molecules. Complex spheroids include a stromal component modeled by human endothelial cells (HUVEC) and fibroblasts modeled by human mesenchymal stem cells (MSCs). The concentration ranges selected for each drug and investigational agent were based upon clinically achievable concentrations if the clinical Cmax of the agent was known.
Compounds. The drugs and investigational agents: abemaciclib (NSC768073), cobimetinib (NSC768068), divarasib (GDC6063, NSC841802), docetaxel (NSC628503), GDC-1971 (RLY-1971, NSC841576), gemcitabine (NSC613327), inavolisib (NSC800729), ipatasertib (NSC767898), KB-0742 (NSC834161), MRTX-1133 (NSC836407), osimertinib (NSC779217), RMC-4630 (NSC839698), RMC-6236 (NSC851965), RMC-6291 (NSC852671), Ro-3306 (NSC812927), sapanisertib (NSC764658), SN-38 (NSC673596), staurosporine (NSC755774), SY5609 (NSC837396), and tovorafenib (DAY101, NSC766906), were obtained from the National Cancer Institute (NCI) Developmental Therapeutics Program Chemical Repository. The FDA-approved anticancer drug set is available from the NCI Developmental Therapeutics Program. […] The stock solutions were prepared in dimethyl sulfoxide (DMSO, Sigma-Aldrich, St. Louis, MO, cat. D2650) at 800-fold the tested concentration and stored at -70 degrees C prior to their use. All drugs and investigational agents were tested over a range starting from a high concentration at or near the clinical Cmax and decreasing in half-log increments. If the clinical Cmax for an agent had not been determined, the highest concentration tested was 10 microM.
Cell Culture. All cells were maintained in an incubator at 37 degrees C and 5% CO2 with 95% humidity. The PDC lines were cultured according to standard operating procedures established by the NCI PDMR. All PDCs were thawed and cultured in Matrigel-coated flasks prepared with a working solution of 1X Ham's F-12 nutrient mix, without supplementation (Invitrogen, Waltham, MA, cat. 11765054), 100 U/mL penicillin-streptomycin (Invitrogen, cat. 15140122), and 2.5% Matrigel (Corning Inc., Corning, NY, cat. 354248) for the first three passages. The 362531-283-R-J2-PDC and 782815-120-R-J1-PDC lines were cultured in 6C/Colon 1B media, which includes advanced DMEM/F-12 (Thermo Fisher Scientific, cat. 12634028), 10 mM HEPES (Thermo Fisher Scientific, cat. 15630080), 1X GlutaMAX supplement (Thermo Fisher Scientific, cat. 35050061), 0.1 mg/mL primocin (InvivoGen, San Diego, CA, cat. ant-pm-2), 10% defined fetal bovine serum, heat inactivated (HyClone Laboratories Inc., Logan, UT, cat. SH30070.03HI), 50% L-WRN conditioned media (ATCC, cat. CRL-3276), 1.25 mM N-Acetyl-L-cysteine (Sigma-Aldrich, cat. A9165), 10 mM nicotinamide (Sigma-Aldrich, cat. N0636), 1X B-27 supplement (Thermo Fisher Scientific, cat. 17504044), 1X N-2 supplement (Thermo Fisher Scientific, cat. 17502048), 50 ng/mL human EGF (Thermo Fisher Scientific, cat. PHG0311), and 10 microM Y-27632 dihydrochloride (Tocris Bioscience, cat. 1254). The K12877-001-R-J1-PDC line was cultured in 6I media, which includes all 6C/Colon 1B media plus 10 ng/mL human FGF-10 (PeproTech, cat. 100-26), 1 ng/mL human FGF-2 (PeproTech, cat. 100-18B), 1 µM prostaglandin E2 (Tocris Bioscience, cat. 2296), […] hydrocortisone (Sigma-Aldrich, cat. H4001), and […] bovine insulin (Sigma-Aldrich, cat. I6634). The K86415-001-R-J1-PDC line was cultured in 6D media, which includes all 6C/Colon 1B media components minus the L-WRN conditioned media. The 485176-168-R4-J1-PDC was cultured in PANC media, which includes all 6C/Colon 1B media plus 100 ng/mL human FGF-10 (PeproTech, cat. 100-26), 500 nM SB-431542 (Selleckchem, cat. S1067), and 10 nM gastrin (Tocris Bioscience, cat. 3006). […]

[1] = second compound 0.0316 µM, first compound 0.0316 µM
[2] = second compound 0.0316 µM, first compound 0.1 µM
[3] = second compound 0.1 µM, first compound 0.0316 µM
[4] = second compound 0.1 µM, first compound 0.1 µM
[5] = second compound 0.316 µM, first compound 0.0316 µM
[6] = second compound 0.316 µM, first compound 0.1 µM
[7] = second compound 1 µM, first compound 0.0316 µM
[8] = second compound 1 µM, first compound 0.1 µM
[9] = second compound 3.16 µM, first compound 0.0316 µM
[10] = second compound 3.16 µM, first compound 0.1 µM
[11] = second compound 10 µM, first compound 0.0316 µM
[12] = second compound 10 µM, first compound 0.1 µM
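Also: spheroids exposed to agents for one week before readout.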
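For viability, T/C in this document: percent viability relative to DMSO vehicle control wells as 100%.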

`CC(C)NCC(C(=O)N1CCN(c2ncnc3c2C(C)CC3O)CC1)c1ccc(Cl)cc1` (centres undefined) + C#Cc1c(F)ccc2cc(O)cc(-c3ncc4c(N5CC6CCC(C5)N6)nc(OCC56CCCN5CC(F)C6)nc4c3F)c12 gave a pIC50 (second compound 0.0316 µM) of 5.19, a pIC50 (second compound 0.1 µM) of 5.22 and a pIC50 (second compound 0.316 µM) of 5.25. For the same compound, the pIC50 (second compound 1 µM) was 5.16, the pIC50 (second compound 3.16 µM) was 5.25 and the pIC50 (second compound 10 µM) was 5.56. It also gave a viability, T/C [1] of 98.7%, a viability, T/C [2] of 111% and a viability, T/C (second compound 0.0316 µM, first compound 0.316 µM) of 108%. For the same compound, the viability, T/C (second compound 0.0316 µM, first compound 1 µM) was 111%, the viability, T/C (second compound 0.0316 µM, first compound 3.16 µM) was 66.9% and the viability, T/C (second compound 0.0316 µM, first compound 10 µM) was 39.3%. The viability, T/C [3] was 103%, the viability, T/C [4] was 109% and the viability, T/C (second compound 0.1 µM, first compound 0.316 µM) was 124%. It also gave a viability, T/C (second compound 0.1 µM, first compound 1 µM) of 101%, a viability, T/C (second compound 0.1 µM, first compound 3.16 µM) of 66.4% and a viability, T/C (second compound 0.1 µM, first compound 10 µM) of 37.4%. For the same compound, the viability, T/C [5] was 106%, the viability, T/C [6] was 103% and the viability, T/C (second compound 0.316 µM, first compound 0.316 µM) was 128%. It also gave a viability, T/C (second compound 0.316 µM, first compound 1 µM) of 102%, a viability, T/C (second compound 0.316 µM, first compound 3.16 µM) of 66.6% and a viability, T/C (second compound 0.316 µM, first compound 10 µM) of 33.6%. For the same compound, the viability, T/C [7] was 104%, the viability, T/C [8] was 106% and the viability, T/C (second compound 1 µM, first compound 0.316 µM) was 111%. For the same compound, the viability, T/C (second compound 1 µM, first compound 1 µM) was 117%, the viability, T/C (second compound 1 µM, first compound 3.16 µM) was 74.6% and the viability, T/C (second compound 1 µM, first compound 10 µM) was 38.6%. It also gave a viability, T/C [9] of 116%, a viability, T/C [10] of 106% and a viability, T/C (second compound 3.16 µM, first compound 0.316 µM) of 114%. For the same compound, the viability, T/C (second compound 3.16 µM, first compound 1 µM) was 96.7%, the viability, T/C (second compound 3.16 µM, first compound 3.16 µM) was 67.5% and the viability, T/C (second compound 3.16 µM, first compound 10 µM) was 33%. The viability, T/C [11] was 110%, the viability, T/C [12] was 111% and the viability, T/C (second compound 10 µM, first compound 0.316 µM) was 125%. The viability, T/C (second compound 10 µM, first compound 1 µM) was 103%, the viability, T/C (second compound 10 µM, first compound 3.16 µM) was 43% and the viability, T/C (second compound 10 µM, first compound 10 µM) was 26.1%.
`CC(C)n1nc(-c2ccc3oc(N)nc3c2)c2c(N)ncnc21` + C#Cc1c(F)ccc2cc(O)cc(-c3ncc4c(N5CC6CCC(C5)N6)nc(OCC56CCCN5CC(F)C6)nc4c3F)c12 gave a pIC50 (second compound 0.0316 µM) of 7.33, a pIC50 (second compound 0.1 µM) of 7.30 and a pIC50 (second compound 0.316 µM) of 7.41. It also gave a pIC50 (second compound 1 µM) of 7.37, a pIC50 (second compound 3.16 µM) of 7.38 and a pIC50 (second compound 10 µM) of 7.63. It also gave a viability, T/C (second compound 0.0316 µM, first compound 0.000316 µM) of 99.2%, a viability, T/C (second compound 0.0316 µM, first compound 0.001 µM) of 96.8% and a viability, T/C (second compound 0.0316 µM, first compound 0.00316 µM) of 91.8%. The viability, T/C (second compound 0.0316 µM, first compound 0.01 µM) was 106%, the viability, T/C [1] was 61.8% and the viability, T/C [2] was 26.6%. For the same compound, the viability, T/C (second compound 0.1 µM, first compound 0.000316 µM) was 104%, the viability, T/C (second compound 0.1 µM, first compound 0.001 µM) was 99.4% and the viability, T/C (second compound 0.1 µM, first compound 0.00316 µM) was 104%. For the same compound, the viability, T/C (second compound 0.1 µM, first compound 0.01 µM) was 110%, the viability, T/C [3] was 67% and the viability, T/C [4] was 24.1%. The viability, T/C (second compound 0.316 µM, first compound 0.000316 µM) was 111%, the viability, T/C (second compound 0.316 µM, first compound 0.001 µM) was 103% and the viability, T/C (second compound 0.316 µM, first compound 0.00316 µM) was 114%. For the same compound, the viability, T/C (second compound 0.316 µM, first compound 0.01 µM) was 109%, the viability, T/C [5] was 56.3% and the viability, T/C [6] was 21%. The viability, T/C (second compound 1 µM, first compound 0.000316 µM) was 108%, the viability, T/C (second compound 1 µM, first compound 0.001 µM) was 118% and the viability, T/C (second compound 1 µM, first compound 0.00316 µM) was 119%. The viability, T/C (second compound 1 µM, first compound 0.01 µM) was 126%, the viability, T/C [7] was 59.7% and the viability, T/C [8] was 22%. It also gave a viability, T/C (second compound 3.16 µM, first compound 0.000316 µM) of 108%, a viability, T/C (second compound 3.16 µM, first compound 0.001 µM) of 113% and a viability, T/C (second compound 3.16 µM, first compound 0.00316 µM) of 125%. For the same compound, the viability, T/C (second compound 3.16 µM, first compound 0.01 µM) was 105%, the viability, T/C [9] was 58.7% and the viability, T/C [10] was 22.4%. For the same compound, the viability, T/C (second compound 10 µM, first compound 0.000316 µM) was 97.4%, the viability, T/C (second compound 10 µM, first compound 0.001 µM) was 94.1% and the viability, T/C (second compound 10 µM, first compound 0.00316 µM) was 126%. The viability, T/C (second compound 10 µM, first compound 0.01 µM) was 96.8%, the viability, T/C [11] was 33.2% and the viability, T/C [12] was 17%.

Reference: PubChem BioAssay AID2060897 (Molecular Pharmacology Branch, DTP, NCI, 2025)
